Results taken from US10620222B2, “Electrified compositions for determining the risk of developing adolescent idiopathic scoliosis through the use of GI protein receptor” (CHU Sainte-Justine, priority 2008, dated 2020).
Values joined by “and” are separate entries in the source; they are usually repeats but may differ in a detail not shown here. Equal entries are not always repeated.

System: receptors coupled to Gi proteins expressed on osteoblasts
Assay: Cellular Dielectric Spectroscopy (CDS, CELLKEY) response to Gi-coupled receptor ligands in osteoblasts from control and AIS subjects
Format: cell-based, human
Design: % of control / % of control signal, Group 1, min diff. / % of control signal, Group 2, min diff. / % of control signal, Group 3, min diff.: concentration or dose not given beside the values; dZiec value / Absolute dZiec, control value of max diff. (maximal control value): unit not given here
Details: for % of control / dZiec value: maleate; for dZiec value: n1, n2 of Exper. 1-3
From the text: Bone specimens were obtained intraoperatively from vertebras (varying from T3 to L4 according to the surgical procedure performed), while with trauma cases used as non-scoliotic controls bone specimens were obtained from other anatomical sites (tibia or femur, and in one case from an iliac crest biopsy). Osteoblasts and myoblasts isolated as previously described (Moreau A, Wang D S, Forget S et al. Melatonin Signaling Dysfunction in Adolescent Idiopathic Scoliosis. Spine 2004; 29:1772-81; Azeddine et al., 2007 Molecular determinants of melatonin signaling dysfunction in adolescent idiopathic scoliosis. Clin Orthop Relat Res. 2007, 462:45-52), were cultured at 37° C./5% CO2 in MEM supplemented with 10% fetal bovine serum (FBS) and 100 μg/mL streptomycin. Prior to the experiment, cells were seeded into the CELLKEY™ label-free cellular analysis system standard 96-well plates at a density of 5×10^4/well and grown for 24 h and incubated in standard conditions (37° C./5% CO2). In some plates, Pertussis toxin (100 ng/mL, Sigma, Oakville, ON, Canada) treatment was performed 16 h before the CDS assay. Following overnight incubation, plates were placed onto the CELLKEY™ label-free cellular analysis system and growth medium was exchanged to assay buffer (Hanks, Balanced Salt Solution containing 20 mM HEPES and 0.1% BSA) before starting the experiment. Cells were then allowed to equilibrate at room temperature for 30 min. Pre-addition measurements were made for 5 min to obtain a baseline reading. […] The quick update rate (2 s.) of the CELLKEY™ label-free cellular analysis system allows detection of these immediate changes in impedance. Impedance measurements were collected for 10 min to 15 min at 28° C. after ligand addition to monitor cellular responses to ligand interaction and to generate CELLKEY™ label-free cellular analysis system response profiles that are characteristic of the signaling mechanisms used.
The response induced by the various ligands to their receptors was measured by cellular dielectric spectroscopy (CDS) using the CELLKEY™ label-free cellular analysis technology. (MDS Sciex, San Francisco, Calif., USA). The CELLKEY™ label-free cellular analysis system integrates a proprietary impedance measurement system, custom 96-well microliter plate, onboard 96-well fluidics, and environment control and custom acquisition and analysis software in a full solution package (MDS Sciex) that is compatible with commercially available robotic platforms. Small voltage at 24 frequencies, from 1 KHz to 10 MHz, is applied to a monolayer of cells settled in a 96-well microplate containing electrodes at the bottom, and the resultant current is measured at an update rate of 2 s. […] Onboard fluid additions and exchanges are handled by 96-well head fluid delivery device with a range of 5-500 μL. In addition to the cell plate location, the CELLKEY™ label-free cellular analysis system includes two additional stations for 96- or 384-well compound plates. All aspects of assay set up, execution, and data acquisition and analysis are controlled by CELLKEY™ label-free cellular analysis software.
The minimal (min) and maximal (max) values represent the mean of three independent measurements performed in duplicate (six values in total) for a given patient/control subject. […] Duplicates (n1 and n2) of three independent experiments are presented.

[1] = osteoblasts of control subjects, 300 μM ligand, from FIGS. 11A-11F

Q: Which results are given for `O=C(O)/C=C\C(=O)O.c1ccc(N2CCN(CCCOc3ccc4c(c3)OCO4)CC2)cc1` [BP554, 1-[3-(3,4-Methylenedioxyphenoxy)propyl]-4-phenyl-piperazine maleate]?
A: % of control (osteoblasts of AIS#1020 (Group 3) relative to CTR#60): 44.5% and 42.3% and 48.5% and 45.1% and 43.7% and 46.6%; dZiec value (osteoblasts of AIS#1020 (Group 3), 300 μM ligand): 62.57 and 64.57 and 78.63 and 76.63 and 66.6 and 74.6; % of control (osteoblasts of AIS#1198 (Group 3 in Table II) relative to CTR#69): 41.1% and 45.0% and 40.6% and 43.5%; dZiec value (osteoblasts of AIS#1198 (Group 3 in Table II), 300 μM ligand): 59.83 and 64.83 and 74.63 and 70.63 and 63.73 and 71.73; % of control (osteoblasts of AIS#1385 (Group 2) relative to CTR#69): 50.4% and 43.4% and 51.9% and 49.0% and 46.4% and 44.8%; dZiec value (osteoblasts of AIS#1385 (Group 2), 300 μM ligand): 73.41 and 68.41 and 86.15 and 85.15 and 72.78 and 73.78; % of control (osteoblasts of AIS#1468 (Group 3) relative to CTR#61): 63.8% and 66.8% and 67.5% and 69.1% and 66.0% and 67.8%; dZiec value (osteoblasts of AIS#1468 (Group 3), 300 μM ligand): 84.51 and 96.51 and 104.4 and 112.4 and 95.45 and 103.45; % of control (osteoblasts of AIS#1474 (Group 1) relative to CTR#60): 28.4% and 27.5% and 31.8% and 29.7% and 28.7% and 29.1%; dZiec value (osteoblasts of AIS#1474 (Group 1), 300 μM ligand): 39.94 and 41.94 and 51.45 and 50.45 and 43.7 and 46.7; % of control (osteoblasts of AIS#1488 (Group 1) relative to CTR#69): 30.2% and 29.2% and 32.7% and 30.0% and 28.8% and 32.3%; dZiec value (osteoblasts of AIS#1488 (Group 1), 300 μM ligand): 44.06 and 46.06 and 54.24 and 52.24 and 45.15 and 53.15; % of control (osteoblasts of AIS#1513 (Group 3) relative to CTR#61): 68.8% and 71.4% and 73.3% and 74.6% and 71.5% and 72.9%; dZiec value (osteoblasts of AIS#1513 (Group 3), 300 μM ligand): 91.15 and 103.15 and 113.38 and 121.38 and 103.27 and 111.27; % of control (osteoblasts of AIS#1549 (Group 1) relative to CTR#61): 19.7%; % of control (osteoblasts of AIS#1550 (Group 2) relative to CTR#60): 53.1% and 56.8% and 56.5% and 58.5% and 55.2% and 57.4%; dZiec value (osteoblasts of AIS#1550 (Group 2), 300 μM ligand): 74.64 and 86.64 and 91.46 and 99.46 and 84.05 and 92.05; dZiec value (osteoblasts of control CTR#60, 300 μM ligand): 140.49/— and 152.49/— and 162/— and 170/— and 152.25/— and 160.25/—; dZiec value (osteoblasts of control CTR#61, 300 μM ligand): 132.45/— and 144.45/— and 154.6/— and 162.6/— and 144.53/— and 152.53/—; dZiec value (osteoblasts of control CTR#69, 300 μM ligand): 145.69/— and 157.69/— and 165.87/— and 173.87/— and 156.78/— and 164.78/—; Absolute dZiec, control value of max diff. (maximal control value) [1]: 166; Absolute dZiec, control value of min diff. (minimal control value) [1]: 128; Absolute dZiec, Group 1, max diff. (group value) (osteoblasts, AIS Group 1 value of max diff., 300 μM ligand, from FIGS. 11A-11F): 32; Absolute dZiec, Group 1, min diff. (group value) (osteoblasts, AIS Group 1 value of min diff., 300 μM ligand, from FIGS. 11A-11F): 49; % of control signal, Group 1, max diff. (osteoblasts, AIS Group 1 vs maximal control value): 19%; % of control signal, Group 1, min diff. (osteoblasts, AIS Group 1 vs minimal control value): 38%; Absolute dZiec, Group 2, max diff. (group value) (osteoblasts, AIS Group 2 value of max diff., 300 μM ligand, from FIGS. 11A-11F): 67; Absolute dZiec, Group 2, min diff. (group value) (osteoblasts, AIS Group 2 value of min diff., 300 μM ligand, from FIGS. 11A-11F): 88; % of control signal, Group 2, max diff. (osteoblasts, AIS Group 2 vs maximal control value): 40%; % of control signal, Group 2, min diff. (osteoblasts, AIS Group 2 vs minimal control value): 69%; Absolute dZiec, Group 3, max diff. (group value) (osteoblasts, AIS Group 3 value of max diff., 300 μM ligand, from FIGS. 11A-11F): 99; Absolute dZiec, Group 3, min diff. (group value) (osteoblasts, AIS Group 3 value of min diff., 300 μM ligand, from FIGS. 11A-11F): 107; % of control signal, Group 3, max diff. (osteoblasts, AIS Group 3 vs maximal control value): 60%; % of control signal, Group 3, min diff. (osteoblasts, AIS Group 3 vs minimal control value): 84%
